Assay [1] concerns T1, Escherichia coli C43(DE3).
T1 construct: C43(DE3) carrying empty pET28 vector
Briefly: microbe, parasite or virus in culture. Further details: antibiotic susceptibility testing of E. coli strains, MIC, median of replicates. As to conditions: D=+IPTG +Kan, median MIC, empty pET28, IPTG and kanamycin present. From the text: (§1) Supplementary file pbio.3003427.s003.docx: S3 Table Antibiotic susceptibility testing for TesA and YbbP knockout strains. (DOCX)

In a further assay the test system is T2, Escherichia coli BW25113.
T2 construct: BW25113
The experiment in a line: microbe, parasite or virus in culture. On the set-up: antibiotic susceptibility testing of E. coli strains, MIC, median of replicates. As to conditions: read-out: Median MIC.
Text: as §1

For a further assay, the target named is T3, YbbAP-TesA (Escherichia coli, UniProt P0ADA1).
T3 construct: co-expressed from pETDuet1-based plasmids in E. coli C43(DE3); His-tag on YbbA; complex in LMNG detergent; 2:1:1 YbbA:YbbP:TesA; Uncharacterized ABC transporter permease YbbP
T3 sequence (P0ADA1 27-208): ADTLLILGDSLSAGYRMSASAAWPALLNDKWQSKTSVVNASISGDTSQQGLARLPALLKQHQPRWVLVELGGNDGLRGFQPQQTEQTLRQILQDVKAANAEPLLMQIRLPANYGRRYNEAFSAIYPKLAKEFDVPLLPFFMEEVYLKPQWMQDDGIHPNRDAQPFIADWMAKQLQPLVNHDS
T3 sequence (P0A9T8 1-228 partner): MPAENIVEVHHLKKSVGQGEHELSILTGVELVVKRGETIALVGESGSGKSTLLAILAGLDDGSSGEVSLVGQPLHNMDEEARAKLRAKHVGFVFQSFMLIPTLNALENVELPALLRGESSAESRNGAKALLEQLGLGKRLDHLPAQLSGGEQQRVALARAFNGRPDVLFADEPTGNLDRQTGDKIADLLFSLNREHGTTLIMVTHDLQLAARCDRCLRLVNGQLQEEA
T3 sequence (P77504 1-804 partner): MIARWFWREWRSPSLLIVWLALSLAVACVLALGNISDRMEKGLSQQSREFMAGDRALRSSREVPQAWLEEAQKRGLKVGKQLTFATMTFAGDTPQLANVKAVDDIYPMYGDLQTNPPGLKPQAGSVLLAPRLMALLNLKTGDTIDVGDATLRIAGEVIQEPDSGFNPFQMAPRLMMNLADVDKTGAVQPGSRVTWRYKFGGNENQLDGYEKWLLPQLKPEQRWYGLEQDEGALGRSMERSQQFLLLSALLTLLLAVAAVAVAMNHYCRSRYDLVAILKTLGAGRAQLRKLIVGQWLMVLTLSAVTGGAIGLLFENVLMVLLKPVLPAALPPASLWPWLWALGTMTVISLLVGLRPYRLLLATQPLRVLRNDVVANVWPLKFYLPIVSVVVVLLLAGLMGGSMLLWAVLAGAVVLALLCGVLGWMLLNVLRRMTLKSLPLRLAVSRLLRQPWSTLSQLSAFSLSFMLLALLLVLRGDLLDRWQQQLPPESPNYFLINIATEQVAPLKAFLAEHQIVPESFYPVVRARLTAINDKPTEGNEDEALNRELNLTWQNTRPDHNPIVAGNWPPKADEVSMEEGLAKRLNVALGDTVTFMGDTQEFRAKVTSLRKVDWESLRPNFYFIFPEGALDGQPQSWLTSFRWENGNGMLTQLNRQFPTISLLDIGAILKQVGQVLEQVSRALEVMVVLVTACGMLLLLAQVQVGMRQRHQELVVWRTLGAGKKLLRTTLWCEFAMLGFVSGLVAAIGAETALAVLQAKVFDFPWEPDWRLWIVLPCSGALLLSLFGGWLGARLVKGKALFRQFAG
Briefly: Michaelis-Menten, absorbance at […] nm. The assay is classed as biochemical. As to conditions: PBS with 0.01% LMNG, 21 °C.

Another assay addresses T4, PaTesA (Pseudomonas aeruginosa, UniProt Q9HZY8).
T4 construct: gene tesA; purified, N-terminal tag
Briefly: absorbance at […] nm. It counts as biochemical. The note with it: purified tagged enzyme.

Assay [2] concerns the target T5, TesA (Escherichia coli, UniProt P0ADA1).
T5 sequence (P0ADA1 27-208): T3 sequence (P0ADA1 27-208)
The experiment in a line: absorbance assay. Further details: isolated TesA; for the cell assays expressed from a pET vector in E. coli delta-tesA (Keio) cells. As to conditions: isolated TesA. The assay is classed as biochemical.

The target of assay [3] is T5, TesA. Briefly: ester hydrolysis by live cells expressing TesA, absorbance at […] nm. The assay is classed as cell-based. On the set-up: for the cell assays expressed from a pET vector in E. coli delta-tesA (Keio) cells. The note with it: PBS; live E. coli delta-tesA cells; 2.5 mM substrate after mixing.
The next assay addresses T6, YbbP (E. coli, UniProt P77504 1-804).
T6 construct: YbbP, transmembrane component (10 transmembrane helices, two periplasmic domains) of the YbbAP Type VII ABC transporter, Escherichia coli; source: size exclusion chromatography for structure determination), in 0.01% LMNG
T6 sequence: T3 sequence (P77504 1-804 partner)
Briefly: cryo-EM structure; YbbAP-TesA(Ser36Ala) complex with AMP-PNP, co-expressed and co-purified (Ni-affinity, SEC), 0.01% LMNG; 4.6 Å. The note with it: both partners purified.

Residue numbers refer to the chain shown, from its start. In brackets after ≈: the same amount, converted by molar mass.

T4 sequence (Q9HZY8 22-201): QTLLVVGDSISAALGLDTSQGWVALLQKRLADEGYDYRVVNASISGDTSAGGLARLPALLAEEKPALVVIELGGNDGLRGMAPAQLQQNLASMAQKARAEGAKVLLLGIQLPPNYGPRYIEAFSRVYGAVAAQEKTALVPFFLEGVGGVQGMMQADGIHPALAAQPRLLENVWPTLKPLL

With `CC1(C)S[C@@H]2[C@H](NC(=O)[C@H](N)c3ccccc3)C(=O)N2[C@H]1C(=O)O` [Ampicillin], the MIC in assay [1] amounted to 8 µg/mL (≈ 22.9 µM). As for `CC(=O)OCC1=C(C(=O)O)N2C(=O)[C@@H](NC(=O)Cc3cccs3)[C@H]2SC1` [Cephalothin], the MIC with Escherichia coli BW25113 came out at 12 µg/mL (≈ 30.3 µM). With `O=C(Cc1cccs1)N[C@@H]1C(=O)N2C(C(=O)O)=C(/C=C/c3ccc([N+](=O)[O-])cc3[N+](=O)[O-])CS[C@H]12` [nitrocefin], the Km (usually the concentration of substrate that gives half-maximal velocity) on YbbAP-TesA is less than 0.01 µM. Besides, on PaTesA, the “absorbance at 488 nm” value is listed as “We also separately confirmed that the P. aeruginosa TesA can hydrolyze nitrocefin”. In addition, the absorbance assay result at TesA [2] was “YbbAP-TesA (and isolated TesA) can hydrolyze nitrocefin”. Turning to `CCCC(=O)Oc1ccc([N+](=O)[O-])cc1` [p-nitrophenyl butyrate], the relative rate entry at TesA [3] was “expressing either TesA (or YbbAP-TesA) from a plasmid show robust hydrolytic activity”. Consider `CC1(C)S[C@@H]2[C@H](NC(=O)Cc3ccccc3)C(=O)N2[C@H]1C(=O)O` [Penicillin G], for which the MIC with Escherichia coli BW25113 turned out to be 32 µg/mL (≈ 95.7 µM).

B1: YbbA (natural protein, E. coli)
chain: T3 sequence (P0A9T8 1-228 partner)
notes: also called ABC domain; source: size exclusion chromatography for structure determination), in 0.01% LMNG
Consider B1, for which, in the assay with YbbP, the stoichiometry N (in general, a count of units in the complex or per binding partner) turned out to be 2.

B2: TesA Ser36Ala (enzyme, E. coli, UniProt P0ADA1 27-208, looked up)
chain: T3 sequence (P0ADA1 27-208) with S10A
notes: TesA, periplasmic multifunctional esterase/thioesterase/lysophospholipase, Escherichia coli, with the catalytic site mutation Ser36Ala; printed residue numbers fit the precursor with its signal peptide; also called TesA catalytic site mutation (Ser36Ala); source: size exclusion chromatography for structure determination), in 0.01% LMNG
As for B2, the “stoichiometry N” value in the assay with YbbP stood at 1.

For the origin of these results see PMC12646458, “Structural characterization of the YbbAP-TesA ABC transporter identifies it as a lipid hydrolase complex that extracts hydrophobic compounds from the bacterial inner membrane” (PLOS Biology, 2025).
